Target: T1, MT619 (Microbacterium testaceum, UniProt E8N6P7)
T1 construct: gene MTES_2447; codon-optimized synthetic gene (MK575514); E. coli BL21; purified by Ni and DEAE columns
T1 sequence (E8N6P7 1-619): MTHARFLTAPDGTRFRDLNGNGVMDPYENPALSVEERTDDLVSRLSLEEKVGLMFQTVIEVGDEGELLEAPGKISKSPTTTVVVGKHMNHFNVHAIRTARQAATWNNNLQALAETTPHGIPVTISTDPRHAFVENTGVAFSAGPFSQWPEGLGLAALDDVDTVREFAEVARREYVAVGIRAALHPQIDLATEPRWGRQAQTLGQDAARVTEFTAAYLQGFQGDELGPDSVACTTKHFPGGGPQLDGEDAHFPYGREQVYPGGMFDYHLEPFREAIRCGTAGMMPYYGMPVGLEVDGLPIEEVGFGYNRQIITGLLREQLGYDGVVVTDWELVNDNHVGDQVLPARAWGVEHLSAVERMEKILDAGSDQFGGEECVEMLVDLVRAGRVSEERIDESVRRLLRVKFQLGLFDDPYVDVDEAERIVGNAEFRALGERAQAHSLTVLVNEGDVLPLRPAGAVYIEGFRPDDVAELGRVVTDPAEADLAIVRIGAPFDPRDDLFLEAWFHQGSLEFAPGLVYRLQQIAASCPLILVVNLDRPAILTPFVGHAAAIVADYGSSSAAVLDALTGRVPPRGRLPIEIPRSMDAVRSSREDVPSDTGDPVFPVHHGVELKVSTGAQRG
Experiment: TLC of hydrolysis products
Type: biochemical
Settings: pH 7.0, 37 °C, 2.0 mg/mL substrate, 0.1 mg/mL enzyme

With `CC(C)=CCC[C@](C)(O[C@@H]1O[C@H](CO[C@@H]2O[C@H](CO)[C@@H](O)[C@H](O)[C@H]2O)[C@@H](O)[C@H](O)[C@H]1O)[C@H]1CC[C@]2(C)[C@@H]1[C@H](O)C[C@@H]1[C@@]3(C)CC[C@H](O[C@@H]4O[C@H](CO)[C@@H](O)[C@H](O)[C@H]4O[C@@H]4O[C@H](CO)[C@@H](O)[C@H](O)[C@H]4O)C(C)(C)[C@@H]3CC[C@]12C` [Rb1] the “TLC of hydrolysis products” value was “MT619 could clearly transform four major ginsenosides (Re, Rg1, Rb1, and Rd)”.
